Where two headings read alike, the source gives them in different places.
Columns and labels:
[1] = target: T1, Recombinant STAT6 protein (STAT6 (W123-T658)) (Homo sapiens, UniProt P42226); experiment: STAT6 Fluorescence Polarization (FP) Assay; format: binding; details: 45-minute incubation
T1 construct: Recombinant STAT6 protein (STAT6 (W123-T658))
T1 sequence (P42226 123-658): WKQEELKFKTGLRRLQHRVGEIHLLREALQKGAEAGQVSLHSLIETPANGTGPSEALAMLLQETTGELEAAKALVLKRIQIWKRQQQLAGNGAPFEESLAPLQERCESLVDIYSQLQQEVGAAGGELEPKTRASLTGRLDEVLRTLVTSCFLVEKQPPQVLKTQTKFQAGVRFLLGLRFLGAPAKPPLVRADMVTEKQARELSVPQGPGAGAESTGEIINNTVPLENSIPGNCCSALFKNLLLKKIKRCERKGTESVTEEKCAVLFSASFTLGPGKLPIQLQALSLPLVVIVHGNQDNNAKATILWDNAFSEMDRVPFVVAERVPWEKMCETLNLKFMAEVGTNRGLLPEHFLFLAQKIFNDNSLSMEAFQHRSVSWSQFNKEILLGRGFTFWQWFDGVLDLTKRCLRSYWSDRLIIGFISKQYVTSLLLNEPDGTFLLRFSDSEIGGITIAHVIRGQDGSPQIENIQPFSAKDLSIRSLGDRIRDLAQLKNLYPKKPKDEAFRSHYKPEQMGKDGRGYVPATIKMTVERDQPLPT
How it was run: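 Displacement of a fluorescent phosphotyrosine peptide (2 nM) from 250 nM STAT6 (W123-T658) is measured by polarization after a 45-minute room-temperature incubation. Compounds are titrated serially at 1% DMSO, and IC50 values derive from regression of mP on log concentration.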

[2] = target: T2, Recombinant STAT3 protein (STAT3 (G127-I722)) (Homo sapiens, UniProt P40763); experiment: STAT3 Fluorescence Polarization (FP) Assay; format: binding; details: probe 5-FAM-GpYLPQTV-NH2 2 nM, 45-minute incubation
T2 construct: Recombinant STAT3 protein (STAT3 (G127-I722))
How it was run: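 Displacement of a 2 nM 5-FAM-labelled pY peptide (GpYLPQTV) from 25 nM recombinant STAT3 (G127-I722) was monitored by fluorescence polarization. Incubation lasted 45 min at room temperature in pH 7.4 HEPES buffer containing 1% DMSO.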

[3] = STAT6 (W123-T658) 250 nM, probe 5-FAM-Ap[…]-NH2 2 nM, read-out: STAT6 (FP assay IC50 class)
[4] = STAT3 (G127-I722) 25 nM, read-out: STAT3 (FP assay IC50 class)
[5] = STAT6 250 nM, probe 5-FAM-Ap[…]-NH2 2 nM, read-out: STAT6 (FP assay IC50)
[6] = STAT3 25 nM, read-out: STAT3 (FP assay IC50)

T2 sequence (P40763 127-722): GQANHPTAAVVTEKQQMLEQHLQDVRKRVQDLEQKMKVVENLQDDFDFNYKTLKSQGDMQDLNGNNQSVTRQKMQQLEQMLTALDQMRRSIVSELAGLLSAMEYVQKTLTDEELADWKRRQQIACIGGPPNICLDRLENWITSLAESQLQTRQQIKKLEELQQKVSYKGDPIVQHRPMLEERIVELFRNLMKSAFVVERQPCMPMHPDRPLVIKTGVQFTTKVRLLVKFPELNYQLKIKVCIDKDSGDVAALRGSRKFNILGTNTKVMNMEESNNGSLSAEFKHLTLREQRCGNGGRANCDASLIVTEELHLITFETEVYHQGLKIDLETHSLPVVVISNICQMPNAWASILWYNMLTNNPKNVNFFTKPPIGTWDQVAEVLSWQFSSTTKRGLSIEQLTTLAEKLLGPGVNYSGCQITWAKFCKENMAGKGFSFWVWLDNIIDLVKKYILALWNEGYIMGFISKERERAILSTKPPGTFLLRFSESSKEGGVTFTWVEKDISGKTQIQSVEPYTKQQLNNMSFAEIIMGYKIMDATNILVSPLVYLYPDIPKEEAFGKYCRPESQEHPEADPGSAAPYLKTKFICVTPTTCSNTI

SMILES	IC50 [1, 3]	IC50 [2, 4]	further results
N#C[C@@H]1[C@@H](c2ccccc2)CN(C(=O)[C@@H]2CC[C@@H]3CCC[C@H](NC(=O)c4cc5cc([C@H](F)P(=O)(O)O)ccc5s4)C(=O)N32)C12CC2 (single isomer, unassigned) [Compound 919]	≤ 0.3 µM	1000 to 10000 nM	–
N#C[C@@H]1CN(C(=O)[C@@H]2C[C@@H](O)[C@@H]3CCCCC[C@H](NC(=O)c4ccc5ccc(C(F)(F)P(=O)(O)O)cc5c4)C(=O)N23)C[C@H]1c1cc[nH]c(=O)c1 (single isomer, unassigned) [Compound 106, ((7-(((1R,3S,6S, 11aS)-3-((3S,4R or 3R,4S)-3-cyano-4-(2-oxo-1,2-dihydropyridin-4-yl)pyrrolidine-1-carbonyl)-1-hydroxy-5-oxodecahydro-1H-pyrrolo[1,2-a]azonin-6-yl)carbamoyl)naphthalen-2-yl)difluoromethyl) phosphonic acid]	–	–	IC50 [1, 5]: ≤ 0.3 µM; IC50 [2, 6]: 1000 to 10000 nM
CC(C)[C@H]1CC[C@H](NC(=O)c2cc3cc(C(F)P(=O)(O)O)ccc3s2)C(=O)N2[C@H](CC[C@H]2C(=O)N2C[C@@H](C#N)[C@H](c3ccccc3)C2)C1 (single isomer, unassigned) [Compound 238]	≤ 0.3 µM	1000 to 10000 nM	–
N#C[C@H]1[C@H](c2ccccc2)CN(C(=O)[C@@H]2CC[C@@H]3C[C@@H](N4CCC4)CC[C@H](NC(=O)c4cc5cc([C@@H](F)P(=O)(O)O)ccc5s4)C(=O)N32)C12CC2 (single isomer, unassigned) [Compound 937]	≤ 0.3 µM	1000 to 10000 nM	–
CC(=O)N1C[C@H](NC(=O)[C@@H]2CC[C@@H]3CCCC[C@H](NC(=O)c4cc5cc(C(F)(F)P(=O)(O)O)ccc5s4)C(=O)N32)[C@@H](O)C1 [Compound 116, ((2-(((3S, 6S,10aS)-3-(((3S,4S)-1-acetyl-4-hydroxypyrrolidin-3-yl)carbamoyl)-5-oxodecahydro-pyrrolo [1,2-a]azocin-6-yl)carbamoyl)benzo[b]thiophen-5-yl)difluoromethyl) phosphonic acid]	–	–	IC50 [1, 5]: 0.3 to 3 µM; IC50 [2, 6]: 100 to 1000 nM
O=C(N[C@H]1CCCC[C@H]2CC[C@@H](C(=O)Nc3ccc4c(c3)CCCS4(=O)=O)N2C1=O)c1cc2cc(C(F)(F)P(=O)(O)O)ccc2s1 [Compound 58, ((2-(((3S,6S,10aS)-3-((1,1-dioxidothio-chroman-6-yl)carbamoyl)-5-oxodecahydropyrrolo [1,2-a]azocin-6-yl)carbamoyl)benzo[b]thiophen-5-yl)difluoro-methyl)phosphonic acid]	–	–	IC50 [1, 5]: 0.3 to 3 µM; IC50 [2, 6]: 100 to 1000 nM
N#C[C@@H]1[C@@H](c2cncc(Cl)c2)CN(C(=O)[C@@H]2CC[C@@H]3CCC[C@H](NC(=O)c4cc5cc([C@H](F)P(=O)(O)O)ccc5s4)C(=O)N32)C12CC2 (single isomer, unassigned) [Compound 842]	–	1000 to 10000 nM	IC50 ([1]; STAT6 (W123-T658) 250 nM, probe 5-FAM-ApYKPFQDLI-NH2 2 nM, read-out: STAT6 (FP assay IC50 class)): 0.3 to 3 µM
N#C[C@H]1CN(C(=O)[C@@H]2CC[C@@H]3CCCC[C@H](NC(=O)c4cc5cc(CP(=O)(O)O)ccc5s4)C(=O)N32)C[C@@H]1c1ccccc1 (single isomer, unassigned) [Compound 90, ((2-(((3S,6S,10aS)-3-((3R,4S or 3S,4R)-3-cyano-4-phenylpyrrolidine-1-carbonyl)-5-oxodecahydropyrrolo [1,2-a]azocin-6-yl)carbamoyl)benzo[b]thiophen-5-yl)methyl) phosphonic acid]	–	–	IC50 ([1]; STAT6 250 nM, probe 5-FAM-ApYKPFQDLI-NH2 2 nM, read-out: STAT6 (FP assay IC50)): 0.3 to 3 µM; IC50 [2, 6]: > 10000 nM
O=C(N[C@H]1CCCC[C@H]2CC[C@@H](C(=O)N3CC(F)(c4ccccc4)C3)N2C1=O)c1cc2cc(C(F)(F)P(=O)(O)O)ccc2s1 [Compound 53, (difluoro(2-(((3S,6S,10aS)-3-(3-fluoro-3-phenylazetidine-1-carbonyl)-5-oxodecahydropyrrolo [1,2-a]azocin-6-yl)carbamoyl)benzo[b]thiophen-5-yl)methyl) phosphonic acid]	–	–	IC50 [1, 5]: 0.3 to 3 µM; IC50 [2, 6]: < 100 nM
N#C[C@H]1[C@H](c2ccccc2)CN(C(=O)[C@@H]2CC[C@@H]3CCCC[C@H](NC(=O)c4cc5cc([C@H](F)P(=O)(O)O)ccc5s4)C(=O)N32)C12CC2 (single isomer, unassigned) [Compound 924]	≤ 0.3 µM	1000 to 10000 nM	–

Second part, led by results:

IC50 [1, 3]	IC50 [2, 4]	SMILES	further results
3 to 30 µM	< 100 nM	COC[C@@H]1CCN1c1ccncc1C1CN(C(=O)[C@@H]2CC[C@@H]3CCC[C@H](NC(=O)c4cc5cc([C@@H](F)P(=O)(O)O)ccc5s4)C(=O)N32)C1 [Compound 926, ((S)-fluoro(2-(((3S,6S,9aS)-3-(3-(4-((S)-2-(methoxymethyl)azetidin-1-yl)pyridin-3-yl)azetidine-1-carbonyl)-5-oxooctahydro-1H-pyrrolo[1,2-a]azepin-6-yl)carbamoyl)benzo [b]thiophen-5-yl)methyl) phosphonic acid]	–
0.3 to 3 µM	< 100 nM	Cc1cc(C#N)ccc1C1CN(C(=O)[C@@H]2CC[C@@H]3CCCC[C@H](NC(=O)c4cc5cc(C(F)(F)P(=O)(O)O)ccc5s4)C(=O)N32)C1 [Compound 1110, ((2-(((3S,6S,10aS)-3-(3-(4-cyano-2-methylphenyl)azetidine-1-carbonyl)-5-oxodecahydropyrrolo[1,2-a]azocin-6-yl)carbamoyl)benzo[b]thiophen-5-yl)difluoromethyl)phosphonic acid]	–
3 to 30 µM	< 100 nM	COC[C@@H]1CCN1c1ccncc1C1CN(C(=O)[C@@H]2CC[C@@H]3CCC[C@H](NC(=O)c4cc5cc(CP(=O)(O)O)ccc5s4)C(=O)N32)C1 [Compound 213, ((2-(((3S,6S,9aS)-3-(3-(4-((S)-2-(methoxymethyl)azetidin-1-yl)pyridin-3-yl)azetidine-1-carbonyl)-5-oxooctahydro-1H-pyrrolo[1,2-a]azepin-6-yl)carbamoyl)benzo[b]thiophen-5-yl)methyl)phosphonic acid]	–
3 to 30 µM	1000 to 10000 nM	COc1ccnc(F)c1C1CN(C(=O)[C@@H]2CC[C@@H]3CCC[C@H](NC(=O)c4cc5cc(CP(=O)(O)O)ccc5s4)C(=O)N32)C1 [Compound 578, ((2-(((3S,6S,9aS)-3-(3-(2-fluoro-4-methoxypyridin-3-yl)azetidine-1-carbonyl)-5-oxooctahydro-1H-pyrrolo[1,2-a]azepin-6-yl)carbamoyl)benzo[b]thiophen-5-yl)methyl)phosphonic acid]	–
3 to 30 µM	1000 to 10000 nM	CN(C)C(=O)c1ccncc1C1CN(C(=O)[C@@H]2CC[C@@H]3CCC[C@H](NC(=O)c4cc5cc([C@@H](F)P(=O)(O)O)ccc5s4)C(=O)N32)C1 (single isomer, unassigned) [Compound 696]	–
≤ 0.3 µM	1000 to 10000 nM	N#C[C@@H]1[C@@H](c2cccnc2)CN(C(=O)[C@@H]2CC[C@@H]3CCC[C@H](NC(=O)c4cc5cc([C@@H](F)P(=O)(O)O)ccc5s4)C(=O)N32)C12CC2 (single isomer, unassigned) [Compound 837]	–
3 to 30 µM	< 100 nM	Cn1cnnc1C1CN(C(=O)[C@@H]2CC[C@@H]3CCC[C@H](NC(=O)c4cc5cc(C(F)(F)P(=O)(O)O)ccc5s4)C(=O)N32)C1 [Compound 779, (difluoro(2-(((3S,6S,9aS)-3-(3-(4-methyl-4H-1,2,4-triazol-3-yl)azetidine-1-carbonyl)-5-oxooctahydro-1H-pyrrolo[1,2-a]azepin-6-yl)carbamoyl)benzo [b]thiophen-5-yl)methyl) phosphonic acid]	–
0.3 to 3 µM	1000 to 10000 nM	Cn1ccc([C@@H]2CN(C(=O)[C@@H]3CC[C@@H]4CCC[C@H](NC(=O)c5cc6cc([C@@H](F)P(=O)(O)O)ccc6s5)C(=O)N43)C3(CC3)C2)cc1=O [Compound 831, ((S)-fluoro(2-(((3S,6S,9aS)-3-((R)-6-(1-methyl-2-oxo-1,2-dihydropyridin-4-yl)-4-azaspiro[2.4]heptane-4-carbonyl)-5-oxooctahydro-1H-pyrrolo[1,2-a]azepin-6-yl)carbamoyl)benzo [b]thiophen-5-yl)methyl) phosphonic acid]	–
3 to 30 µM	< 100 nM	O=C(N[C@H]1CCC[C@H]2CC[C@@H](C(=O)N3CC(c4cnccc4OC4COC4)C3)N2C1=O)c1cc2cc(C(F)P(=O)(O)O)ccc2s1 (stereo partly drawn) [Compound 598, (fluoro(2-(((3S,6S,9aS)-3-(3-(4-(oxetan-3-yloxy)pyridin-3-yl)azetidine-1-carbonyl)-5-oxooctahydro-1H-pyrrolo[1,2-a]azepin-6-yl)carbamoyl)benzo [b]thiophen-5-yl)methyl) phosphonic acid]	–
